According to publication PMC11049977, “Antenna-Biased Odorant Receptor PstrOR17 Mediates Attraction of Phyllotreta striolata to (S)-Cis-Verbenol and (−)-Verbenone” (International Journal of Molecular Sciences, 2024):

Target: T1, PstrOR17 (Phyllotreta striolata, UniProt A0A9N9TEW2)
T1 construct: gene PHYEVI_LOCUS1381; full-length ORF (1182 bp, 393 residues) from antennal cDNA in pUAST.attb; expressed in Drosophila melanogaster ab3A empty neurons under DmelOR22-Gal4; endogenous fly Orco not mentioned for the assay; with Odorant receptor coreceptor (Drosophila melanogaster, endogenous in the ab3A neuron)
T1 sequence (A0A9N9TEW2 1-393): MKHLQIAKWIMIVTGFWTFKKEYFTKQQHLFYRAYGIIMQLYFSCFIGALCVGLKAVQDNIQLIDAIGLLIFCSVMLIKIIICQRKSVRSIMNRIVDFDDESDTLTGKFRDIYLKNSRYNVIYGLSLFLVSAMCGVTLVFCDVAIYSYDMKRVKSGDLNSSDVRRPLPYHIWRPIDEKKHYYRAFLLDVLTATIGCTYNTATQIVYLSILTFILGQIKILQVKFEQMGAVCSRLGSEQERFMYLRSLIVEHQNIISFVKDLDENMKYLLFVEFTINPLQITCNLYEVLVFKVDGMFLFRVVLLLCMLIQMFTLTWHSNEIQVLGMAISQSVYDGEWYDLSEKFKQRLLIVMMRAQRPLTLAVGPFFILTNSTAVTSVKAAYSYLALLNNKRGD
T1 sequence (Q9VNB5 1-486 partner): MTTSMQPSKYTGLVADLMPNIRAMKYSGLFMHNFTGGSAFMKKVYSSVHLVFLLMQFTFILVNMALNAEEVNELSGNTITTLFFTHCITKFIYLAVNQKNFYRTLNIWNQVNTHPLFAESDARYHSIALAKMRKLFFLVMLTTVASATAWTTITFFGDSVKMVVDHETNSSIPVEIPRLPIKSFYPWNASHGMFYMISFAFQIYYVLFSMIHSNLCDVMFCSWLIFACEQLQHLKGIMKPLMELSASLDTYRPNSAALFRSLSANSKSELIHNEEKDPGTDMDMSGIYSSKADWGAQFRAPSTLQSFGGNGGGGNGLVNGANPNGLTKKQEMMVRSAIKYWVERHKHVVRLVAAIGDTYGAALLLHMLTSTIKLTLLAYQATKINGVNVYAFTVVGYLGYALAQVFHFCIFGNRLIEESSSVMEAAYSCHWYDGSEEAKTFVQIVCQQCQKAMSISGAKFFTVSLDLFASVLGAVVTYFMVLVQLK
Experiment: single sensillum recording, Drosophila empty neuron (ab3A)
Format: cell-based
Settings: agonist, odour cartridge 10 μL on filter strip

[1] = 10 μg/μL for profile, dose series 10^-5 to 10 mg/mL

Row | Compound | single sensillum recording, Drosophila empty neuron (ab3A) [1] | single sensillum recording, Drosophila empty neuron (ab3A) (10 μg/μL)
1 | CC1=C[C@H](O)[C@H]2C[C@@H]1C2(C)C [(S)-cis-verbenol] | PstrOR17 responded to both (−)-verbenone and (S)-cis-verbenol in a dose-dependent manner | –
2 | CC1=CC(=O)[C@H]2C[C@@H]1C2(C)C [(−)-verbenone] | PstrOR17 responded to both (−)-verbenone and (S)-cis-verbenol in a dose-dependent manner | –
3 | C=C1CC[C@H]2C[C@@H]1C2(C)C [(−)-β-pinene] | – | moderate responses to five other odorants: α-pinene; (−)-β-pinene
4 | CC1=CCC2CC1C2(C)C (stereo not drawn) [α-pinene] | – | PstrOR17 also conferred moderate responses to five other odorants: α-pinene
5 | CC1=CCC(C(C)C)=CC1 [γ-terpinene] | – | moderate responses to five other odorants: α-pinene; (−)-β-pinene; γ-terpinene
